For three compounds, IC50 results are on record in paper PMC11780439 (ACS Omega, 2025).

Read-outs that look alike come from different tables or passages of the source.

Test [1] deals with T1, prion protein (PrP) (Mesocricetus auratus, UniProt P04273).
T1 construct: gene PRNP
The test can be described thus: biochemical.

Test [2] has as its target T1, prion protein (PrP). Put plainly: biochemical. The source holds these as a separate data set.

T1 sequence (P04273 90-231 limits assumed): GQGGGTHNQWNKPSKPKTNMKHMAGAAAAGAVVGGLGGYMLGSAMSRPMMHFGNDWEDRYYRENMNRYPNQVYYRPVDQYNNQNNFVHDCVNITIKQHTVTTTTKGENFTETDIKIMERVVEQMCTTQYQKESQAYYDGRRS

For `O=C(/C=C/c1ccc(O)c(O)c1)O[C@@H]1C[C@](O)(C(=O)O)C[C@@H](O)[C@H]1O` [CA, chlorogenic acid], the IC50 against prion protein (PrP) [1] was determined as 64.4 ± 12.1 µM. Turning to `O=C(O[C@@H]1Cc2c(O)cc(O)cc2O[C@@H]1c1cc(O)c(O)c(O)c1)c1cc(O)c(O)c(O)c1` [EGCG, epigallocatechin gallate], it took 2.84 ± 0.97 µM to reach half-maximal inhibition at prion protein (PrP) [2] (IC50). As to `O=C(/C=C/c1ccc(O)c(O)c1)O[C@@H]1C[C@@](O)(C(=O)O)C[C@@H](O)[C@@H]1O` [NCA, neochlorogenic acid], the IC50 against prion protein (PrP) [1] stood at 35.3 ± 7.09 µM.
